Results taken from patent publication US7863446B2, “Heterocycles” (Orchid Research Laboratories Limited, priority 2006, dated 2011).

Experiments:
TNF-α = assay: In vitro measurement of TNF-α in human PBMC (LPS stimulated); assay type: cell-based; conditions: for inhibition at 1 µM: NA = No activity, read-out: TNF-α Inhibition (%) at Conc. (1 μM); for inhibition at 10 µM: read-out: TNF-α Inhibition (%) at Conc. (10 μM)
Description: In Vitro Measurement of Tumor Necrosis Factor Alpha (TNF-α)
This assay determines the effect of test compounds on the production of TNF α in human Peripheral Blood Mononuclear Cells (PBMC). Compounds were tested for their ability to inhibit the activity of TNF α in human PBMC. PBMC were isolated from blood (of healthy volunteers) using BD Vacutainer CPT™ (Cell preparation tube, BD Bio Science) and suspended in RPMI medium (Physiol. Res. 52: 593-598, 2003). The test compounds were pre-incubated with PBMC (0.5 million/incubation well) for 15 minutes at 37° C. and then stimulated with Lipopolysaccharide (Escherichia coli: B4; 1 μg/ml) for 18 hours at 37° C. in 5% CO2. The levels of TNF-α in the cell culture medium were estimated using enzyme-linked immunosorbent assay performed in a 96 well format as per the procedure of the manufacturer (Cayman Chemical, Ann Arbor, USA).

IL-6 = assay: In vitro measurement of IL-6 in human PBMC (LPS stimulated); assay type: cell-based; conditions: for inhibition at 1 µM: read-out: IL-6 Inhibition (%) Conc. (1 μM); for inhibition at 10 µM: read-out: IL-6 Inhibition (%) Conc. (10 μM)
Description: In Vitro Measurement of Interleukin-6(IL-6)
This assay determins the effect of test compounds on the production of IL-6 in human PBMC (Physiol. Res. 52: 593-598, 2003). Compounds were tested for their ability to inhibit the activity of IL-6 in human PBMC. PBMC were isolated from blood using BD Vacutainer CPT™ Cell preparation tube (BD Bio Science) and suspended in RPMI medium. The test compounds were pre-incubated with PBMC (0.5 million/incubation well) for 15 minutes at 37° C. and then stimulated with Lipopolysaccharide (Escherichia coli: B4; 1 μg/ml) for 18 hours at 37° C. in 5% CO2. The levels of IL-6 in cell culture medium were estimated using enzyme-linked immunosorbent assay performed in a 96 well format as per the procedure of the manufacturer (Cayman Chemical, Ann Arbor, USA).

[1] = target: T1, purified recombinant COX-2 (Homo sapiens, UniProt P35354); assay: COX-2 enzyme based assay; assay type: biochemical; conditions: NA = No activity, read-out: % Inhibition in rEnzyme Assay COX-2
T1 sequence (P35354 18-604): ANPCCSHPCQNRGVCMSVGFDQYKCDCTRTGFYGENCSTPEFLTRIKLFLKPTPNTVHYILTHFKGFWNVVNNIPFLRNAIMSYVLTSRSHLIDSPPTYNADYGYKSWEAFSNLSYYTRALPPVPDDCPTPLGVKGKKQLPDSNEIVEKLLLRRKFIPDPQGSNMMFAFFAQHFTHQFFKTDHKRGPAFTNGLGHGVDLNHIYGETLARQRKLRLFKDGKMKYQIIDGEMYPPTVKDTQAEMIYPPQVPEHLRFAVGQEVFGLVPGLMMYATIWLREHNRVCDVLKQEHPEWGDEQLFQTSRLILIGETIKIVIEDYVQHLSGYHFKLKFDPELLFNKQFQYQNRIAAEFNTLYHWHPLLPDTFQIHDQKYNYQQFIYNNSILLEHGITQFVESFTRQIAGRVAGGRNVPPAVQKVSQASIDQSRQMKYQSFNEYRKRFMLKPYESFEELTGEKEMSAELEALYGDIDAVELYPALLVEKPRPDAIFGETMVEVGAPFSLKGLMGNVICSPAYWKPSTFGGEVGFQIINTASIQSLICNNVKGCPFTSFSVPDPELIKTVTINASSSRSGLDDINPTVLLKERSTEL
Description: (§1) COX-1 and COX-2 Enzyme Based Assay
(§2) COX-1 and COX-2 enzyme based assays were carried out to check the inhibitory potential of the test compounds on the production of prostaglandin by purified recombinant COX-1/COX-2 enzyme (Proc. Nat. Acad. Sci. USA, 88, 2692-2696, 1991; J. Clin. Immunoassay 15, 116-120, 1992) In this assay, the potential of the test compound to inhibit the production of prostaglandin either by COX-1 or COX-2 from arachidonic acid (substrate) was measured. This was an enzyme based in-vitro assay to evaluate selective COX inhibition with good reproducibility.
(§3) Arachidonic acid was converted to PGH2 (Intermediate product) by COX1/COX-2 in the presence or absence of the test compound. The reaction was carried out at 37° C. and after 2 minutes it was stopped by adding 1M HCl. Intermediate product PGH2 was converted to a stable prostanoid product PGF2αby SnCl2 reduction. The amount of PGF2α, produced in the reaction was inversely proportional to the COX inhibitory potential of the test compound. The prostanoid product was quantified via enzyme immunoassay (EIA) using a broadly specific antibody that binds to all the major forms of prostaglandin, using Cayman ELISA kit as per the procedure outlined by the manufacturer (Cayman Chemicals, Ann Arbor, USA).

[2] = target: purified recombinant COX-1 (Homo sapiens, UniProt P23219); assay: COX-1 enzyme based assay; assay type: biochemical; conditions: NA = No activity, read-out: % Inhibition in rEnzyme Assay COX-1
Chain of purified recombinant COX-1 (P23219 24-599): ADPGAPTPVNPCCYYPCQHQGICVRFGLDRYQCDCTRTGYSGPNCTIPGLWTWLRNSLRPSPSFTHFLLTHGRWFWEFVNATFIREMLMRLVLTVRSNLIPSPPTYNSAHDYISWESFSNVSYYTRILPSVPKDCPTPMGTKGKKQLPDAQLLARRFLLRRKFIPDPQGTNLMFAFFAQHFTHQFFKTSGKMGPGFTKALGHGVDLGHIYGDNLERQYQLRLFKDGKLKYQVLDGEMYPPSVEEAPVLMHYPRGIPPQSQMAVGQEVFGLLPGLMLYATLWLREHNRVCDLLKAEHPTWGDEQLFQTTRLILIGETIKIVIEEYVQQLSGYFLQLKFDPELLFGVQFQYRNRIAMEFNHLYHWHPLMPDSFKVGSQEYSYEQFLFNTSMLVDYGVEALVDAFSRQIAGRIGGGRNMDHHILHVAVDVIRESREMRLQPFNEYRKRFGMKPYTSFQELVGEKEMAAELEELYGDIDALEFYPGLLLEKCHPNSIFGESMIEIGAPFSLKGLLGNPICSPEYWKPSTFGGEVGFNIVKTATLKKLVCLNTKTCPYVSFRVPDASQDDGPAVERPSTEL
Description: as §1, §2, §3

Row | SMILES | inhibition at 1 µM (TNF-α) [%] | inhibition at 10 µM (TNF-α) [%] | also measured
1 | CS(=O)(=O)c1ccc(-c2nc(C(F)(F)F)nc(OS(=O)(=O)c3ccc(F)cc3)c2-c2ccccc2)cc1 [Example 26, 6-[4-(Methylsulfonyl)phenyl]-5-phenyl-2-(trifluoromethyl)pyrimidin-4-yl-4-fluorobenzenesulfonate] | 32.7 | 50.8 | –
2 | NNc1nc(C(F)(F)F)nc(-c2ccncc2)c1-c1ccccc1 [Example 12, 4-Hydrazino-5-phenyl-6-pyridin-4-yl-2-(trifluoromethyl)pyrimidine] | 34.8 | 78.4 | –
3 | NS(=O)(=O)c1cccc(-c2c(-c3ccccc3)nc(C(F)(F)F)nc2N2CCN(c3ccc([N+](=O)[O-])cn3)CC2)c1 [Example 117, 3-[6-{4-[5-(Nitro)pyridin-2-yl]piperazin-1-yl}-4-phenyl-2-(trifluoromethyl)pyrimidin-5-yl]benzenesulfonamide] | 69.7 | 86.5 | –
4 | NS(=O)(=O)c1ccc(-c2nc(C(F)(F)F)nc(N3CCNCC3)c2-c2ccc(F)cc2)cc1 [Example 31, 4-[5-(4-Fluorophenyl)-6-piperazin-1-yl-2-(trifluoromethyl)pyrimidin-4-yl]benzenesulfonamide] | 37.4 | 62.5 | –
5 | CCOC(=O)C1CCN(c2nc(C(F)(F)F)nc(-c3ccc(F)cc3)c2-c2cccc(S(N)(=O)=O)c2)CC1 [Example 59, Ethyl-1-[5-(3-aminosulfonylphenyl)-6-(4-fluorophenyl)-2-(trifluoromethyl)pyrimidin-4-yl]piperidine-4-carboxylate] | – | – | inhibition at 1 µM (IL-6): 26.1%; inhibition at 10 µM (IL-6): 36.8%
6 | CS(=O)(=O)c1ccc(-c2nc(C(F)(F)F)nc(OS(=O)(=O)c3cccs3)c2-c2ccccc2)cc1 [Example 25, 6-[4-(Methylsulfonyl)phenyl]-5-phenyl-2-(trifluoromethyl)pyrimidin-4-yl thiophene-2-sulfonate] | 38.8 | 94 | –
7 | NNc1nc(C(F)(F)F)nc(-c2cccnc2)c1-c1ccccc1 [Example 11, 4-Hydrazino-5-phenyl-6-pyridin-3-yl-2-(trifluoromethyl)pyrimidine] | 12.7 | 50.7 | –
8 | CS(=O)(=O)c1ccc(-c2nc(C(F)(F)F)nc(OS(=O)(=O)c3ccc(OC(F)(F)F)cc3)c2-c2ccccc2)cc1 [Example 24, 6-[4-(Methylsulfonyl)phenyl]-5-phenyl-2-(trifluoromethyl)pyrimidin-4-yl-4-trifluoromethoxybenzenesulfonate] | 53.9 | 32.9 | –
9 | NS(=O)(=O)c1cccc(-c2c(-c3ccccc3)nc(C(F)(F)F)nc2N2CCN(c3ccccn3)CC2)c1 [Example 58] | – | – | inhibition at 1 µM ([1]; 1 μM): 11.2%; inhibition at 10 µM ([1]; 10 μM): 2.62%; inhibition at 1 µM ([2]; 1 μM): 10.2%; inhibition at 10 µM ([2]; 10 μM): 9.59%
10 | NNc1nc(C(F)(F)F)nc(-c2ccncc2)c1-c1ccc(F)cc1 [Example 13, 5-(4-Fluorophenyl)-4-hydrazino-6-pyridin-4-yl-2-(trifluoromethyl)pyrimidine] | 25.8 | 35.3 | –
11 | CS(=O)(=O)c1ccc(-c2nc(C(F)(F)F)nc(OS(=O)(=O)CCCCl)c2-c2ccccc2)cc1 [Example 19, 6-[4-(Methylsulfonyl)phenyl]-5-phenyl-2-(trifluoromethyl)pyrimidin-4-yl-3-chloropropane-1-sulfonate] | – | – | inhibition at 1 µM (IL-6): 27.9%; inhibition at 10 µM (IL-6): 41.9%
12 | CCOC(=O)C1CCN(c2nc(C(F)(F)F)nc(-c3ccccc3)c2-c2cccc(S(N)(=O)=O)c2)CC1 [Example 61, Ethyl 1-[6-phenyl-5-(3-aminosulfonylphenyl)1-2-(trifluoromethyl)pyrimidin-4-yl]piperidine-4-carboxylate] | – | – | inhibition at 1 µM (IL-6): 24.5%; inhibition at 10 µM (IL-6): 54.5%
13 | CS(=O)(=O)N1CCN(c2nc(C(F)(F)F)nc(-c3ccc(F)cc3)c2-c2cccc(S(N)(=O)=O)c2)CC1 [Example 78, 3-[4-[4-(Methylsulfonyl)piperazin-1-yl]-6-(4-fluorophenyl)-2-(trifluoromethyl)pyrmidin-5-yl]benzenesulfonamide] | – | – | inhibition at 1 µM (IL-6): 22.3%; inhibition at 10 µM (IL-6): 25.3%
14 | CS(=O)(=O)c1ccc(-c2nc(C(F)(F)F)nc(OS(=O)(=O)c3ccccc3F)c2-c2ccccc2)cc1 [Example 27, 6-[4-(Methylsulfonyl)phenyl]-5-phenyl-2-(trifluoromethyl)pyrimidin-4-yl-2-fluorobenzenesulfonate] | 43.5 | 51.9 | –
15 | Cc1cnc(C(=O)N2CCN(c3nc(C(F)(F)F)nc(-c4ccc(S(C)(=O)=O)cc4)c3-c3ccccc3)CC2)cn1 [Example 36, 4-[4-(Methylsulfonyl)phenyl]-6-{4-[(5-methylpyrazin-2-yl)carbonyl]piperazin-1-yl}-5-phenyl-2-(trifluoromethyl)pyrimidine] | 51.3 | 26.9 | –
16 | COc1cc(N2CCN(c3nc(C(F)(F)F)nc(-c4ccc(F)cc4)c3-c3cccc(S(N)(=O)=O)c3)CC2)nc(OC)n1 [Example 66, 4-[4-(2,6-Dimethoxypyrimidin-4-yl)piperazin-1-yl]-5-(3-aminosulfonylphenyl)-6-(4-fluorophenyl)-2-(trifluoromethyl)pyrimidine] | 57.9 | 80.7 | –
17 | CC(=O)Nc1ccc(N2CCN(c3nc(C(F)(F)F)nc(-c4ccc(S(C)(=O)=O)cc4)c3-c3ccc(F)cc3)CC2)nc1 [Example 119, 4-[5-(Acetylamino)pyridin-2-yl]piperazin-1-yl-5-(4-fluorophenyl)-6-[4-(methylsulfonyl)phenyl]-2-(trifluoromethyl)pyrimidine] | 88.9 | 91.5 | –
18 | CNS(=O)(=O)c1ccc(-c2c(-c3ccc(S(C)(=O)=O)cc3)nc(C(F)(F)F)nc2N2CCOCC2)cc1 [Example 34, 4-{4-(Morpholin-4yl)-6-[4-(methylsulfonyl)phenyl]-2-(trifluoromethyl)pyrimidin-5-yl}-N-methylbenzenesulfonamide] | – | 80.9 | –
